Measurements from patent US10093670B2, “Azabenzimidazole derivative having AMPK-activating activity” (Shionogi & Co., Ltd., priority 2011, dated 2018).

Biological target: T1, human AMPK α1β1γ1 enzyme (Homo sapiens, UniProt Q13131+Q9Y478)
T1 construct: purchased Carna Biosciences, Inc
Experiment: Evaluation of AMPK activator, Test Example 1 (mobility-shift kinase assay, FL-Peptide 7)
Format: biochemical
Conditions: for EC150 (compound concentration showing 150% relative to the control (100%)): human AMPK α1β1γ1, 25° C., 2 hours, 0.2 mM ATP final; for Emax: human AMPK α1β1γ1, relative to control (100%), read-out: Emax (maximum rate of increase in activity within the measurement range)
Experimental: The obtained liquid was left to stand for 10 minutes.
The obtained liquid was allowed to react at 25° C. for 2 hours, and 10 μl of 20 mM EDTA was then added thereto to stop the reaction.
To detect phosphorylated fluorescent substrates, the reaction liquid was applied to a measuring device, LabChip EZ Reader II manufactured by Caliper Life Science, Inc., for detecting fluorescence by using differences in mobility due to differences in charge. The setting conditions for the device were pressure, −1.5 PSI; upstream voltage, −2250 V; downstream voltage, −400 V; post sample buffer sip time, 40 seconds; final delay, 120 seconds; and peak order, Product First.
A conversion rate was calculated from the peak heights of the resulting substrate and product. The conversion rate when not containing a compound was used as a control, and a concentration dependent curve was made by plotting the rate of increase in activity to the control at each concentration of a compound.

T1 sequence (Q13131 10-559 limits assumed): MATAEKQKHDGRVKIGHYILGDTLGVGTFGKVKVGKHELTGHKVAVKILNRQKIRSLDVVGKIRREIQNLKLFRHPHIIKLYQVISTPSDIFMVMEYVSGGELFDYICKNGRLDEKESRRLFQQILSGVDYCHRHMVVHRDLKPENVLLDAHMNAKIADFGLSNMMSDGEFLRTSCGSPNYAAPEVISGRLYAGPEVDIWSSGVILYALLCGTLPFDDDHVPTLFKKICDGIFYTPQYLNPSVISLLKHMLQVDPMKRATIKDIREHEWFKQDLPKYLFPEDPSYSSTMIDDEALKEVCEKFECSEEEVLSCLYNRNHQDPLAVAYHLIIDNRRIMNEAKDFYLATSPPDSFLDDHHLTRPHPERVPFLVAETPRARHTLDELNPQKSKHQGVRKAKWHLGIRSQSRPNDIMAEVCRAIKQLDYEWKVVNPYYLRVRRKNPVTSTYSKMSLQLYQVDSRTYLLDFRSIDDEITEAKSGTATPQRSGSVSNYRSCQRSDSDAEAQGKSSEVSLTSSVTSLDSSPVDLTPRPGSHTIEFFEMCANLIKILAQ
T1 sequence (Q9Y478 whole entry): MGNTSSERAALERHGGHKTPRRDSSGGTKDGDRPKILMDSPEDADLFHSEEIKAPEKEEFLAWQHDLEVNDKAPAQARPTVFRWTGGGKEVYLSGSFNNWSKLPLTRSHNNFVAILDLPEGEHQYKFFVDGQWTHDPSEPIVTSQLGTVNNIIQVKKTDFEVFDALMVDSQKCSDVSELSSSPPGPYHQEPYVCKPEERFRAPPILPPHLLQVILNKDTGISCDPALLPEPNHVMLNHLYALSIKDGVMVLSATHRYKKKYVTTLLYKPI
T1 sequence (P54619 whole entry partner): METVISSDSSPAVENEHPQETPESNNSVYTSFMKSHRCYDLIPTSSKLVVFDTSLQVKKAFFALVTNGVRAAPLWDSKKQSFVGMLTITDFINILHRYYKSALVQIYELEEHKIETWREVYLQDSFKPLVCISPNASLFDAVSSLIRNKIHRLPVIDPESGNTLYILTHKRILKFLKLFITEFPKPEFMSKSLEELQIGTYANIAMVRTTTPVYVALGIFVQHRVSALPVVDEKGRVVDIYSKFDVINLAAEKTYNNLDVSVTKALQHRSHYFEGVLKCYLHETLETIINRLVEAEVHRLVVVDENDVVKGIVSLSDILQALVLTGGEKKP

Row | Compound | EC150 (compound concentration showing 150% relative to the control (100%)) | Emax
1 | O=C(O)CSc1nc2nc(-c3ccc(N4CCOCC4)cc3)c(Cl)cc2[nH]1 [Compound I-1-4] | 160 nM | 283%
2 | O=C(O)COc1nc2nc(-c3ccc(N4CCOCC4)cc3)c(Cl)cc2[nH]1 [Compound I-1-10] | 390 nM | 270%
3 | O=C(O)CN1CCC(Oc2nc3nc(-c4ccc(N5CCOCC5)cc4)c(Cl)cc3[nH]2)CC1.O=CO [Compound I-1-11] | 2100 nM | 238%
4 | Oc1cc(COc2nc3nc(-c4ccc(N5CCOCC5)cc4)c(Cl)cc3[nH]2)on1 [Compound I-1-12] | 320 nM | 263%
5 | O=C(COc1nc2nc(-c3ccc(N4CCOCC4)cc3)c(Cl)cc2[nH]1)N1CCC(F)(F)CC1 [Compound I-1-21] | 730 nM | 284%
6 | CN1CCC(Oc2nc3nc(-c4ccc(N5CCOCC5)cc4)c(Cl)cc3[nH]2)CC1 [Compound I-1-25] | 3100 nM | 226%
7 | CC(C#N)Oc1nc2nc(-c3ccc(N4CCOCC4)cc3)c(Cl)cc2[nH]1 (stereo not shown) [Compound I-1-27] | 310 nM | 226%
8 | CC(Oc1nc2nc(-c3ccc(N4CCOCC4)cc3)c(Cl)cc2[nH]1)c1noc(=O)[nH]1 (stereo not shown) [Compound I-1-28] | 210 nM | 231%
9 | CS(=O)(=O)N1CCC(Oc2nc3nc(-c4ccc(N5CCOCC5)cc4)c(Cl)cc3[nH]2)CC1 [Compound I-1-32] | 200 nM | 280%
10 | CC(Oc1nc2nc(-c3ccc(N4CCOCC4)cc3)c(Cl)cc2[nH]1)C(N)=O (stereo not shown) [Compound I-1-37] | 910 nM | 228%
11 | CC(Sc1nc2nc(-c3ccc(N4CCOCC4)cc3)c(Cl)cc2[nH]1)C(=O)O (stereo not shown) [Compound I-1-39] | 160 nM | 258%
12 | CC(C)(Sc1nc2nc(-c3ccc(N4CCOCC4)cc3)c(Cl)cc2[nH]1)C(=O)O [Compound I-1-57] | 140 nM | 277%
13 | CC(Cc1nc2nc(-c3ccc(N4CCOCC4)cc3)c(Cl)cc2[nH]1)C(=O)O (stereo not shown) [Compound I-1-62] | 540 nM | 228%
14 | O=C1CCC(Oc2nc3nc(-c4ccc(N5CCOCC5)cc4)c(Cl)cc3[nH]2)CN1 (stereo not shown) [Compound I-1-68] | 4900 nM | 174%
15 | O=C(O)[C@H]1CC[C@H](Oc2nc3nc(-c4ccc(-c5ccccc5)cc4)c(Cl)cc3[nH]2)CC1 [Compound I-2-30] | 650 nM | 178%
16 | NC(=O)[C@H]1CC[C@H](Oc2nc3nc(-c4ccc(N5CCOCC5)cc4)c(Cl)cc3[nH]2)CC1 [Compound I-2-33] | 70 nM | 236%
17 | O=C(O)C[C@H]1CC[C@H](Oc2nc3nc(-c4ccc(N5CCOCC5)cc4)c(Cl)cc3[nH]2)CC1 [Compound I-2-40] | 51 nM | 293%
18 | CC(=O)NC1CC=C(c2ccc(-c3nc4nc(O[C@H]5CC[C@H](C(=O)O)CC5)[nH]c4cc3Cl)cc2)CC1 (stereo partly shown) [Compound I-2-58] | 650 nM | 169%
19 | CC(=O)N1CC=C(c2ccc(-c3nc4nc(O[C@H]5CC[C@H](C(=O)O)CC5)[nH]c4cc3Cl)cc2)CC1 [Compound I-2-59] | 2300 nM | 181%
20 | O=C(O)[C@H]1CC[C@H](Oc2nc3nc(-c4ccc(-c5ccccc5O)cc4)c(Cl)cc3[nH]2)CC1 [Compound I-2-60] | 49 nM | 205%
21 | O=C(c1ccc(-c2ccc(-c3nc4nc(O[C@H]5CC[C@H](C(=O)O)CC5)[nH]c4cc3Cl)cc2)cc1)N1CCOCC1 [Compound I-2-61] | 72 nM | 189%
22 | CN(C)C(=O)N1CC(Oc2nc3nc(-c4ccc(C5=CCC(C(=O)O)CC5)cc4)c(Cl)cc3[nH]2)C1 (stereo not shown) [Compound I-2-71] | 2400 nM | 193%
23 | O=C(O)C[C@H]1CC[C@H](Oc2nc3nc(-c4ccc(C5=CCOCC5)cc4)c(Cl)cc3[nH]2)CC1 [Compound I-2-85] | 18 nM | 255%

Row | Compound | EC150 (compound concentration showing 150% relative to the control (100%)) | Emax
24 | CC(Oc1nc2nc(-c3ccc(N4CCOCC4)cc3)c(Cl)cc2[nH]1)[C@H]1CC[C@H](C(=O)O)CC1 (stereo partly shown) [Compound I-2-88] | 65 nM | 288%
25 | CC(Oc1nc2nc(-c3ccc(C4=CCC(C(=O)O)CC4)cc3)c(Cl)cc2[nH]1)c1ccccn1 (stereo not shown) [Compound I-2-104] | 6400 nM | 161%
26 | CC(C)(COc1nc2nc(-c3ccc(N4CCOCC4)cc3)c(Cl)cc2[nH]1)C(=O)O [Compound I-2-109] | 250 nM | 212%
27 | CC(Oc1nc2nc(-c3ccc(N4CCCC4)cc3)c(Cl)cc2[nH]1)c1noc(=O)[nH]1 (stereo not shown) [Compound I-2-114] | 49 nM | 215%
28 | O=C(O)C1(COc2nc3nc(-c4ccc(N5CCOCC5)cc4)c(Cl)cc3[nH]2)CC1 [Compound I-2-116] | 130 nM | 229%
29 | O=C(O)[C@H]1C[C@H](Oc2nc3nc(-c4ccc(N5CCOCC5)cc4)c(Cl)cc3[nH]2)C1 [Compound I-2-118] |  | 194%
30 | CC(Oc1nc2nc(-c3ccc(N4CCOCC4)cc3)c(Cl)cc2[nH]1)C(C)(C)C(=O)O (stereo not shown) [Compound I-2-121] | 160 nM | 258%
31 | CN(CCO)C(=O)N1CCC(Oc2nc3nc(-c4ccc(C5=CCC(C(=O)O)CC5)cc4)c(Cl)cc3[nH]2)CC1 (stereo not shown) [Compound I-3-2] | 1.4 nM | 182%
32 | CN(C)C(=O)[C@H]1C[C@@H](Oc2nc3nc(-c4ccc(C5=CCC(C(=O)O)CC5)cc4F)c(Cl)cc3[nH]2)C1 (stereo partly shown) [Compound I-3-3] | 19 nM | 271%
33 | CCC(Oc1nc2nc(-c3ccc(N4CCOCC4)cc3)c(Cl)cc2[nH]1)C(=O)O (stereo not shown) [Compound I-3-11] | 61 nM | 240%
34 | Clc1cc2[nH]c(OC3CCOCC3)nc2nc1-c1ccc(N2CCOCC2)cc1 [Compound I-3-12] | 21 nM | 211%
35 | CC(Oc1nc2nc(-c3ccc(C4=CCC(C(=O)O)CC4)cc3)c(Cl)cc2[nH]1)C(N)=O (stereo not shown) [Compound I-3-14] | 130 nM | 232%
36 | CC(C)(C(N)=O)C1CCC(Oc2nc3nc(-c4ccc(N5CCOCC5)cc4)c(Cl)cc3[nH]2)CC1 (stereo not shown) [Compound I-3-25] | 230 nM | 210%
37 | O=C(O)C1CC=C(c2ccc(-c3nc4nc(OC5CCOCC5)[nH]c4cc3Cl)cc2)CC1 (stereo not shown) [Compound I-3-26] | 68 nM | 221%
38 | CC(C)C(Oc1nc2nc(-c3ccc(N4CCOCC4)cc3)c(Cl)cc2[nH]1)C(=O)O (stereo not shown) [Compound I-3-27] | 280 nM | 228%
39 | CC(=O)N1CC=C(c2ccc(-c3nc4nc(OC5CCC(C(C)(C)C(=O)O)CC5)[nH]c4cc3Cl)cc2)CC1 (stereo not shown) [Compound I-3-39] | 5.1 nM | 286%
40 | CC(C)(C(=O)O)C1CCC(Oc2nc3nc(-c4ccc(N5CCCC5)cc4)c(Cl)cc3[nH]2)CC1 (stereo not shown) [Compound I-3-44] | 7.6 nM | 275%
41 | CCC(Oc1nc2nc(-c3ccc(C4=CCC(NC(C)=O)CC4)cc3)c(Cl)cc2[nH]1)C(N)=O (stereo not shown) [Compound I-3-50] | 160 nM | 228%
42 | CC(C)(C(=O)O)[C@]1(O)CC[C@@H](Oc2nc3nc(-c4ccc(N5CCCCC5)cc4)c(Cl)cc3[nH]2)CC1 [Compound I-3-51] | 4.5 nM | 338%
43 | CN1CCc2cc(-c3nc4nc(O[C@H]5CC[C@](O)(C(C)(C)C(=O)O)CC5)[nH]c4cc3Cl)ccc21 [Compound I-3-52] | 2.3 nM | 400%
44 | O=C(O)C1CCC(Oc2nc3nc(-c4ccc(N5CCOCC5)cc4)c(Cl)cc3[nH]2)C1 (stereo not shown) [Compound I-3-53] | 51 nM | 261%
45 | CC(C)(C(=O)O)[C@]1(O)CC[C@@H](Oc2nc3nc(-c4c(F)cc(N5CCOCC5)cc4F)ccc3[nH]2)CC1 [Compound I-3-62] | 22 nM | 333%
46 | CC(=O)NC1CCN(c2ccc(-c3nc4nc(OC5CCC(C(C)(C)C(=O)O)CC5)[nH]c4cc3Cl)cc2)CC1 (stereo not shown) [Compound I-3-65] | 24 nM | 233%
